The values below come from patent EP2525820B1, “NOVEL CLASS OF MONOSPECIFIC AND BISPECIFIC HUMANIZED ANTIBODIES THAT TARGET THE INSULIN-LIKE GROWTH FACTOR TYPE I RECEPTOR (IGF-1R)” (Immunomedics, Inc., priority 2010, dated 2011).

One data set relates to CAG human myeloma cells. In kind it is in vivo, SCID mice. Here is the method: CAG human myeloma cells are grown in cell culture to a density that allows 1 million cells to be harvested for transplantation to 6-8-week old female SCID mice obtained from Charles River Laboratories (Frederick, MD). The mice are immunosuppressed by pretreatment with fludarabine and cyclophosphamide 3 days before intravenous injection of 5-10 x […] myeloma cells as described in Stein et al. (Blood. 2004; 104:3705-11). Mice are examined daily for signs of distress or hind-leg paralysis, and weighed weekly. Paralysis of the hind legs or a weight loss of ≥ 20% is used as the survival endpoint, when the animals are euthanized. Groups of 8-10 mice are used. […] The effects of combining bortezomib with hR1 are evaluated in the same myeloma model. Treatments are given as two i.p. doses/week for 3 weeks, initiated on day 5 after injection of the myeloma cells. […] Treatment with hR1 at 0.6 mg/mouse repeated twice weekly for 3 weeks increases the median survival time to 60 days. When bortezomib and hR1 treatments are combined, the median survival time is increased further to 79 days for 0.5 mg bortezomib + 0.6 mg hR1, which is significant (P=0.04).

Another data set has as its target DDD. Conditions: DDD of RII / RIIα dimers; read-out: binding constant for DDD; cited from earlier work.
For a further data set, the target named is RII isoform of PKA (Homo sapiens, UniProt P13861). Conditions: cited from earlier work.
Chain of RII isoform of PKA (P13861 whole entry, canonical isoform): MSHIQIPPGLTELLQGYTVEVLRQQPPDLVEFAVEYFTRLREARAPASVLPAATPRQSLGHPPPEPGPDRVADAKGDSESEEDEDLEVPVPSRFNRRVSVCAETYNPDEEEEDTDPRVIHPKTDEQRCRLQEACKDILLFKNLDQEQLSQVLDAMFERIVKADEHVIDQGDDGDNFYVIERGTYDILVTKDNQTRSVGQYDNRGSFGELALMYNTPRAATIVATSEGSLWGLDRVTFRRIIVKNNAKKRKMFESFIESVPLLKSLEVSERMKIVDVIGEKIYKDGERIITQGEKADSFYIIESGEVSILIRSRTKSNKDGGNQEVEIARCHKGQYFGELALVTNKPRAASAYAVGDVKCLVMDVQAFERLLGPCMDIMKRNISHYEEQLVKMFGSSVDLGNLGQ

Chain of DDD (P13861 2-45 limits assumed): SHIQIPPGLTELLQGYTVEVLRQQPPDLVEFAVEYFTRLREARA

For the compound `CC(C)C[C@H](NC(=O)[C@H](Cc1ccccc1)NC(=O)c1cnccn1)B(O)O` [bortezomib], the “increase of median survival” value in the data set on CAG human myeloma cells (0.5 mg/kg, versus untreated control mice) stood at 21.2%. In the data set with CAG human myeloma cells (mouse, in vivo, 0.5 mg/kg), the “tolerability, body-weight loss” value was “well tolerated, with no body-weight loss”. Also, the median survival in the data set with CAG human myeloma cells (two i.p. doses/week for 3 weeks from day 5, bortezomib 0.5 mg/kg, hR1 0.6 mg/mouse, untreated control 33 days) is listed as 40 days.

“QIEYLAKQIVDNAIQQA (SEQ ID NO: 17) [AKAP-IS]”: at DDD, the Kd is 400 pM. With “QIEYVAKQIVDYAIHQA (SEQ ID NO:39) [SuperAKAP-IS]”, in the data set with RII isoform of PKA, the “selectivity for the RII isoform of PKA compared with the RI isoform” value was “five order of magnitude higher selectivity”.
